From patent US20100035865A1, “Sulfonamides and Pharmaceutical Compositions Thereof” (PFIZER INC, priority 2007, published 2010)
Values joined by “and” are separate entries in the source; they are usually repeats but may differ in a detail not shown here. Equal values may be shown once. Read-outs that look alike come from different tables or passages of the source.

Test system: AMPA receptors
Assay: AMPA ES Cell FLIPR Screen, G7330B (EC50 and % effect)
Format: cell-based, murine
Conditions: for EC50: ES cell-derived neurons, 32 uM AMPA challenge
Protocol: The murine ES cell line used was E14-Sx1-16C, which has a targeted mutation in the Sox1 gene, a neuroectodermal marker, that offers G418 resistance when the Sox1 gene is expressed (Stem Cell Sciences). ES cells were maintained undifferentiated as previously described (Roach). […] ES cells were plated on gelatin-coated dishes (BD Biosciences), the media was changed daily and the cells were dissociated with 0.05% Trypsin EDTA (Invitrogen) every other day.
Embryoid Body Formation: Prior to embryoid body (EB) formation the ES cells were weaned from FBS onto Knockout Serum Replacement (KSR) (Invitrogen). To form EBs, ES cells were dissociated into a single cell suspension then 3×10^6 cells were plated in bacteriology dishes (Nunc 4014) and grown as a suspension culture in NeuroEB-I medium that consisted of Knockout™ D-MEM (Invitrogen), supplemented with 10% KSR (Invitrogen), 0.2 mM L-Glutamine (Invitrogen), 0.1 mM MEM non-essential amino acids (Invitrogen), 30 μg/ml Gentamicin (Invitrogen), 1000 u/ml ESGRO (Chemicon), 0.1 mM 2-Mercaptoethanl (Sigma) and 150 ng/ml Transferrin (Invitrogen). The plates were put on a Stovall Belly Button shaker in an atmospheric oxygen incubator. The media was changed on day 2 of EB formation with NeuroEB-I and on day 4 with NeuroEB-II (NeuroEB-I plus 1 μg/ml mNoggin [R&D Systems]).
Neuronal Precursor Selection and Expansion: On day 5 of EB formation, EBs were dissociated with 0.05% Trypsin EDTA, and 4×10^6 cells/100 mm dish were plated on Laminin coated tissue culture dishes in NeuroII-G418 medium that consisted of a base medium of a 1:1 mixture of D-MEM/F12 supplemented with N2 supplements and NeuroBasal Medium supplemented with B27 supplement and 0.1 mM L-Glutamine (all from Invitrogen). The base medium was then supplemented with 10 ng/ml bFGF (Invitrogen), 1 μg/ml mNoggin, 500 ng/ml SHH-N, 100 ng/ml FGF-8b (R&D Systems), 1 μg/ml Laminin and 200 μg/ml G418 (Invitrogen) for selection of neuronal precursors expressing Sox-1. The plates were put in an incubator that contained 2% Oxygen and were maintained in these conditions. During the 6-day selection period, the NeuroII media was changed daily. On day 6, the surviving neuronal precursor foci were dissociated with 0.05% Trypsin EDTA and the cells were plated at a density of 1.5×10^6 cells/100 mm Laminin coated dish in NeuroII-G418 medium. The cells were dissociated every other day for expansion, and prepared for Cryopreservation at passage 3 or 4. The cryopreservation medium contained 50% KSR, 10% Dimethyl Sulfoxide (DMSO) (Sigma) and 40% NeuroI-G418I medium. Neuronas precursors were crypreserved at a concentration of 4×10^6cells/ml and 1 ml/cryovial in a controlled rate freezer overnight then transferred to an ultra-low freezer or liquid nitrogen for long-term storage,
Neuronal Differentiation: Cryopreserved ES cell-derived neuronal precursors were thawed by the rapid thaw method in a 37-degree water-bath. The cells were transferred from the cryovial to a 100 mm Laminin coated tissue culture dish that already contained NeuroII-G418 that had been equilibrated in a 2% Oxygen incubator. The media was changed with fresh NeuroII-G418 the next day. The cells were dissociated every other day as described above for expansion to generate enough cells to plate for the screen. For the screen, the cells were plated into 384-well poly-d-lysine coated tissue culture dishes (BD Biosciences) by the automated SelecT at a cell density of 6K cells/well in differentiation medium NeuroIII that contained a 4:1 ratio of the NeuroBasalMedium/B27:D-MEM/F12/N2 supplemented with 1 μM cAMP (Sigma), 200 μM Ascorbic Acid (Sigma), 1 μg/ml Laminin (Invitrogen) and 10 ng/ml BDNF (R&D Systems). The plates were put in an incubator with 2% Oxygen and allowed to complete the differentiation process for 7 days. The cells could then be used over a 5-day period for the high throughput screen.
Procedure for AMPA ES Cell FLIPR Screen […]

[1] = Dose 32.0 uM, individual determinations
[2] = individual determinations, read-out: G7330B (U): EC50
[3] = mean of individual determinations (range and n in cells below), read-out: G7330B mean EC50
[4] = Dose 31.6 uM, individual determinations

Compound	G7330B (U): % Effect [1]	EC50 [2]	EC50 [3] [µM]	G7330B (U): % Effect [4]
CC(C)S(=O)(=O)NC1CCNCC1c1ccc(-c2cc(Cl)ccc2Cl)cc1 (stereo not drawn) [Example 23, Propane-2-sulfonic acid[trans-3-(2′,5′-dichloro-biphenyl-4-yl)-piperidin-4-yl)]-amide]	10.1% and 9.71% and 6.91%	> 32 µM	> 32	
CC(C)S(=O)(=O)NC1CCOCC1c1ccc(-c2ccccc2)cc1 (stereo not drawn) [Example 17, Propane-2-sulfonic acid(cis-3-biphenyl-4-yl-tetrahydro-pyran-4-yl)-amide]	150% and 138% and 125%	7.17 µM	7.17	
CC(C)S(=O)(=O)NC1COCCC1c1ccc(-c2ccc(C#N)cc2)cc1 (stereo not drawn) [Example 35, Propane-2-sulfonic acid[trans-4-(4′-cyano-biphenyl-4-yl)-tetrahydro-pyran-3-yl]-amide]		8.97 µM	8.97	146% and 155% and 152%
CC(=O)N1CC[C@@H](NS(=O)(=O)C(C)C)[C@H](c2ccc(NC(=O)c3ccccc3)cc2)C1 (relative stereo) [Example 39, N-{4-[trans-1-Acetyl-4-(propane-2-sulfonylamino)-piperidin-3-yl]-phenyl}-benzamide]		20.2 µM	20.2	145% and 142%
CC(=O)N1CCC(NS(=O)(=O)C(C)C)C(c2ccc(-c3ccccc3C#N)cc2)C1 (stereo not drawn) [Example 29, Propane-2-sulfonic acid[trans-1-acetyl-3-(2′-cyano-biphenyl-4-yl)-piperidin-4-yl]-amide]		1.73 µM and 1.44 µM and 2.16 µM and 1.96 µM and 1.28 µM and 1.51 µM and 2.74 µM and 2.29 µM and 3.61 µM and 3.13 µM	2.07	201% and 204% and 155% (2×) and 159% and 194% and 364% and 391% and 363% and 195% (3×) and 187% and 150% and 151% and 202%
CC(=O)N1CCC(NS(=O)(=O)C(C)C)C(c2ccc(-c3ccc(C#N)cc3)cc2)C1 (stereo not drawn) [Example 28, Propane-2-sulfonic acid[trans-1-acetyl-3-(4′-cyano-biphenyl-4-yl)-piperidin-4-yl]-amide]	128% and 132% and 116%	6.44 µM	6.44	
CC(C)S(=O)(=O)N[C@@H]1COCC[C@H]1c1ccc(-c2ccccc2Cl)cc1 [Example 36, Propane-2-sulfonic acid[trans-4-(2′-chloro-biphenyl-4-yl)-tetrahydro-pyran-3-yl]-amide]		7.04 µM	7.04	
CC(C)S(=O)(=O)N[C@@H]1COCC[C@H]1c1ccc(-c2ccccc2C#N)cc1 [Example 34, Propane-2-sulfonic acid[trans-4-(2′-cyano-biphenyl-4-yl)-tetrahydro-pyran-3-yl]-amide]		1.25 µM	1.25	137%
CCS(=O)(=O)NC1CCOCC1c1ccc(-c2ccccc2)cc1 (stereo not drawn) [Example 16, Ethanesulfonic acid(trans-3-biphenyl-4-yl-tetrahydro-pyran-4-yl)-amide]	153% and 141% and 140%	10.4 µM and > 31.6 µM and > 10 µM	> 18.2	
CC(=O)N1CCC(NS(=O)(=O)C(C)C)C(c2ccc(-c3ccccc3)cc2)C1 (stereo not drawn) [Example 27, propane-2-sulfonic acid(trans-1-acetyl-3-biphenyl-4-yl-piperidin-4-yl)-amide]	136% and 134% and 127%	6.92 µM	6.92	
CC(C)S(=O)(=O)N[C@H]1CN(C)CC[C@@H]1c1ccc(-c2ccccc2)cc1 [Example 3, Propane-2-sulfonic acid ((3R,4R)-4-biphenyl-4-yl-1-methyl-piperidin-3-yl)-amide]	99.8% and 94.3% and 83.1% and 129% and 98.9% and 119%		> 4.2	
CC(C)S(=O)(=O)NC1CCN(C)CC1c1ccc(-c2ccccc2)cc1 (stereo not drawn) [Example 25, Propane-2-sulfonic acid(trans-3-biphenyl-4-yl-1-methyl-piperidin-4-yl)-amide]	−0.323% and 0.295% and 2.72%	> 32 µM	> 32	
CC(C)S(=O)(=O)N[C@H]1COCC[C@]1(O)c1ccc(-c2ccccc2)cc1 (relative stereo) [Example 41, Propane-2-sulfonic acid((3S,4S)-rel-4-biphenyl-4-yl-4-hydroxytetrahydro-pyran-3-yl)-amide]		3.05 µM	3.05	58.3% and 66.6%
CC(C)S(=O)(=O)N[C@@H]1CCN(C)C[C@H]1c1ccc(NC(=O)c2cc(F)cc(F)c2)cc1 (relative stereo) [Example 45, 3,5-Difluoro-N-{4-[trans-1-methyl-4-(propane-2-sulfonylamino)-piperidin-3-yl]-phenyl}-benzamide]		> 31.6 µM	> 31.6	−0.114% and 0.0432% and −0.344%
CC(C)S(=O)(=O)NC1COCCC1(O)c1ccc(-c2ccccc2)cc1 [Example 42, Propane-2-sulfonic acid((3R,4S)-rel-4-biphenyl-4-yl-4-hydroxy-tetrahydro-pyran-3-yl)-amide]		11.9 µM	11.9	145% and 142% and 152%
CC(C)S(=O)(=O)NC1CCN(C)CC1c1ccc(-c2ccc(C#N)cc2)cc1 (stereo not drawn) [Example 24, Propane-2-sulfonic acid[trans-3-(4′-cyano-biphenyl-4-yl)-1-methyl-piperidin-4-yl]-amide]		> 31.6 µM	> 31.6	14.5% and 19.9% and 12.7%
CC(C)S(=O)(=O)NC1CCNCC1c1ccc(-c2ccc(C#N)cc2)cc1 (stereo not drawn) [Example 19, Propane-2-sulfonic acid[trans-3-(4′-cyano-biphenyl-4-yl)-piperidin-4-yl]-amide]	6.07% and 7.12% and 6.19%	> 32 µM	> 32	
CC(=O)N1CCC(c2ccc(-c3ccccc3)cc2)C(NS(=O)(=O)C(C)C)C1 (stereo not drawn) [Example 43, Propane-2-sulfonic acid(trans-1-acetyl-4-biphenyl-4-yl-piperidin-3-yl)-amide]		> 31.6 µM	> 31.6	85.0% and 92.2% and 102%
CC(C)S(=O)(=O)NC1CCN(S(C)(=O)=O)CC1c1ccc(-c2ccccc2)cc1 (stereo not drawn) [Example 26, Propane-2-sulfonic acid(trans-3-biphenyl-4-yl-1-methanesulfonyl-piperidin-4-yl)-amide]	13.3% and 10.8% and 9.95%	> 32 µM	> 32	
CNC(=O)c1ccc(-c2ccc([C@@H]3CCOC[C@H]3NS(=O)(=O)C(C)C)cc2)cc1 (relative stereo) [Example 38, 4′-[trans-3-(Propane-2-sulfonylamino)-tetrahydro-pyran-4-yl]-biphenyl-4-carboxylic acid methylamide]		> 10 µM	> 10	
CC(=O)N1CC[C@@H](NS(=O)(=O)C(C)C)[C@H](c2ccc(NC(=O)c3cc(F)cc(F)c3)cc2)C1 (relative stereo) [Example 40, N-{4-[trans-1-Acetyl-4-(propane-2-sulfonylamino)-piperidin-3-yl]-phenyl}-3,5-difluoro-benzamide]		11.7 µM	11.7	152% and 179% and 176%
CC(C)S(=O)(=O)NC1CCNCC1c1ccc(-c2ccccc2)cc1 (stereo not drawn) [Example 18, Propane-2-sulfonic acid(trans-3-biphenyl-4-yl-piperidin-4-yl)-amide]	5.77% and 3.59% and 3.97%	> 32 µM	> 32	
